Results published in ChEMBL document CHEMBL2163248, “Classification of inhibitors of hepatic organic anion transporting polypeptides (OATPs): influence of protein expression on drug-drug interactions” (J Med Chem, 2012).

What was measured:
[1] = biological target: T1, Solute carrier organic anion transporter family member 1B1 (Homo sapiens, UniProt Q9Y6L6); assay: Inhibition of human liver OATP1B1 expressed in HEK293 Flp-In cells assessed as reduction in E17-betaG uptake at 20 uM by scintillation counting; conditions: hek293, 20 µM
T1 sequence (Q9Y6L6 whole entry): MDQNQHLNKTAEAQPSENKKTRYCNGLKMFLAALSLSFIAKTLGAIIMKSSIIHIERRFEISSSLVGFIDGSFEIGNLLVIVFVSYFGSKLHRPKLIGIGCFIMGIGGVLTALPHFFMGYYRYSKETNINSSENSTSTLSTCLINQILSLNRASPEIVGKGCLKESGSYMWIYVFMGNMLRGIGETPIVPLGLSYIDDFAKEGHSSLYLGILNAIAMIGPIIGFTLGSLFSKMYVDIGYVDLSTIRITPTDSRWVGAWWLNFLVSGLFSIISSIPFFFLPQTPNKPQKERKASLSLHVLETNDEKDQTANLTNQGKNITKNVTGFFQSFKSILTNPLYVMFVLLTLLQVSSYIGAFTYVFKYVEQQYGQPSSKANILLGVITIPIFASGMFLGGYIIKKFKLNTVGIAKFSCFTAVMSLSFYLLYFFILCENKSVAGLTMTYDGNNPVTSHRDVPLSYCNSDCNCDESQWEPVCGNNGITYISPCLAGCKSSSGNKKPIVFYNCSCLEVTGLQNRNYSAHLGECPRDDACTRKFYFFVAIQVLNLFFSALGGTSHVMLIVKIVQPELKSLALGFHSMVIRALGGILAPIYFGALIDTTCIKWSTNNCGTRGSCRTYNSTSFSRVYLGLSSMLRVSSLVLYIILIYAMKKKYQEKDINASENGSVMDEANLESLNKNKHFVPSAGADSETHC

[2] = biological target: T2, Solute carrier organic anion transporter family member 1B3 (Homo sapiens, UniProt Q9NPD5); assay: Inhibition of human liver OATP1B3 expressed in HEK293 Flp-In cells assessed as reduction in [3H]E17-betaG uptake at 20 uM incubated for 5 mins by scintillation counting; conditions: hek293, 5 min
T2 sequence (Q9NPD5 whole entry): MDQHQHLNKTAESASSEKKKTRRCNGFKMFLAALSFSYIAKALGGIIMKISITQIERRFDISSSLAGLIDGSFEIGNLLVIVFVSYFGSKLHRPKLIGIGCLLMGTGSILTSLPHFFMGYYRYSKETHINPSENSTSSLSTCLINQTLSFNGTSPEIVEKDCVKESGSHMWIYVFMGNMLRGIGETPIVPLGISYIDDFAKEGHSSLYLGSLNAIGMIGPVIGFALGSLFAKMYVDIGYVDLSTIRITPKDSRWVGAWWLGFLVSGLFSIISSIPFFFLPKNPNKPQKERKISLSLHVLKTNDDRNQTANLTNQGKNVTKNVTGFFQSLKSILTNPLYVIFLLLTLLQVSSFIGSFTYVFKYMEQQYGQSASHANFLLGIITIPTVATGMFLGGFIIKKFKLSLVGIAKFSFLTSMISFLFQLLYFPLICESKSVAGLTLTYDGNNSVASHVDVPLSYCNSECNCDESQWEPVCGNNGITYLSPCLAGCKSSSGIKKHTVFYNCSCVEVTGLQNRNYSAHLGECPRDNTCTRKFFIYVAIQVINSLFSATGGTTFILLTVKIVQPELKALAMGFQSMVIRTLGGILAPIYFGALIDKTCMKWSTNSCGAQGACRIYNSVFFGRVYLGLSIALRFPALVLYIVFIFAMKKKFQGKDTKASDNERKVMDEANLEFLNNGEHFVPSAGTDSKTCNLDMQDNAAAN

[3] = biological target: T3, Solute carrier organic anion transporter family member 2B1 (Homo sapiens, UniProt O94956); assay: Inhibition of human liver OATP2B1 expressed in HEK293 Flp-In cells assessed as reduction in [3H]E3S uptake at 20 uM incubated for 5 mins by scintillation counting; conditions: hek293, 5 min
T3 sequence (O94956 whole entry): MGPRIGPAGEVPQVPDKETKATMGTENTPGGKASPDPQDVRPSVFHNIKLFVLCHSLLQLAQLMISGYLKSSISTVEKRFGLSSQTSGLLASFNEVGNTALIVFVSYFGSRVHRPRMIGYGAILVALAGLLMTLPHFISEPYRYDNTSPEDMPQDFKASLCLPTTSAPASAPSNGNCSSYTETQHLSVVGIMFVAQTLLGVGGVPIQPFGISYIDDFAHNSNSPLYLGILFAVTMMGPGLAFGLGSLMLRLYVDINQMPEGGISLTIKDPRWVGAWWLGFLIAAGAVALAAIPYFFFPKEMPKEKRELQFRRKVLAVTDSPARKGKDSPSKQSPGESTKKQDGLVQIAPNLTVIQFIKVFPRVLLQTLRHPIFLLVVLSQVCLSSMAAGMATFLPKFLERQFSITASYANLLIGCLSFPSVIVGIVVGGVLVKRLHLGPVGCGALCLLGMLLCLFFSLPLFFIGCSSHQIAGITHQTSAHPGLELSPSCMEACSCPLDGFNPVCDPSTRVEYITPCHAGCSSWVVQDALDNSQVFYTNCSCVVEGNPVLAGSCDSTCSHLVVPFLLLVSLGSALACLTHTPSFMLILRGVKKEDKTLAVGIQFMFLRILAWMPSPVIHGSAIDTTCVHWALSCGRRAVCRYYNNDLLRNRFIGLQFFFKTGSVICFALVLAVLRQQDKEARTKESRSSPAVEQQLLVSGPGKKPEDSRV

Molecule | INH [1] | INH [2] | INH [3]
CC[C@H]1OC(=O)[C@H](C)[C@@H](O[C@H]2C[C@@](C)(OC)[C@@H](O)[C@H](C)O2)[C@H](C)[C@@H](O[C@@H]2O[C@H](C)C[C@H](N(C)C)[C@H]2O)[C@](C)(O)C[C@@H](C)C(=O)[C@H](C)[C@@H](O)[C@]1(C)O [ERYTHROMYCIN] | 58.8% | 45.8% | -19%
CC(C)N(CCC(C(N)=O)(c1ccccc1)c1ccccn1)C(C)C (stereo not drawn) [DISOPYRAMIDE] | 47.5% | 8.6% | 18.5%
CCC1(c2ccccc2)NC(=O)N(C)C1=O (stereo not drawn) [MEPHENYTOIN] | -5.7% | -0.6% | 32.9%
COc1ccnc(C[S+]([O-])c2nc3ccc(OC(F)F)cc3[nH]2)c1OC (stereo not drawn) [PANTOPRAZOLE] | 15.2% | 23.4% | 17.3%
CN(C)CCC=C1c2ccccc2CCc2ccccc21 [AMITRIPTYLINE] | 10.5% | 22% | -8.9%
COCCCC/C(=N\OCCN)c1ccc(C(F)(F)F)cc1 [FLUVOXAMINE] | 43.8% | 29.2% | 39%
Cc1nc2c([nH]1)c(=O)n(C)c(=O)n2Cc1ccco1 [FURAFYLLINE] | -14.7% | 0.7% | 18.1%
Cc1ccc(C)c(OCCCC(C)(C)C(=O)O)c1 [GEMFIBROZIL] | 59.3% | 14.4% | 15.1%
C[C@H]1O[C@H](O[C@H]2[C@H](O)[C@@H](O)[C@@H](O[C@H]3[C@H](O)[C@@H](O)C(O)O[C@@H]3CO)O[C@@H]2CO)[C@H](O)[C@@H](O)[C@@H]1N[C@H]1C=C(CO)[C@@H](O)[C@H](O)[C@H]1O (stereo partly drawn) [ACARBOSE] | 14.9% | 17.7% | 0.1%
CC(=O)N1CCN(c2ccc(OCC3COC(Cn4ccnc4)(c4ccc(Cl)cc4Cl)O3)cc2)CC1 (stereo not drawn) [KETOCONAZOLE] | 53.6% | 24.7% | 44%
O=C(O)[C@H]1O[C@@H](Oc2cc3oc(-c4ccccc4)cc(=O)c3c(O)c2O)[C@H](O)[C@@H](O)[C@@H]1O [BAICALIN] | 27.6% | 20.9% | 59.1%
C[C@H](Cn1cnc2c(N)ncnc21)OCP(=O)(O)O [TENOFOVIR ANHYDROUS] | 18.4% | 33.6% | 23.3%
COc1ccc2[nH]c([S+]([O-])Cc3ncc(C)c(OC)c3C)nc2c1 (stereo not drawn) [OMEPRAZOLE] | 15.9% | 29.5% | 11.3%
O=C1CC2(CCCC2)CC(=O)N1CCCCN1CCN(c2ncccn2)CC1 [BUSPIRONE] | 33.3% | -5.6% | -13.9%
Cc1nnc2n1-c1ccc(Cl)cc1C(c1ccccc1Cl)=NC2 [TRIAZOLAM] | 45.7% | 18.7% | -20.5%
CC[C@@]1(O)C(=O)OCc2c1cc1n(c2=O)Cc2cc3c(CN(C)C)c(O)ccc3nc2-1 [TOPOTECAN] | 36.7% | 17.3% | -39.2%
CC/C(=C(/CC)c1ccc(O)cc1)c1ccc(O)cc1 [DIETHYLSTILBESTROL] | 62.1% | 31.1% | 68.1%
NC12CC3CC(CC(C3)C1)C2 [AMANTADINE] | 26.4% | 10% | 17%

Molecule | INH [1] | INH [2] | INH [3]
Cc1cn([C@H]2C[C@H](N=[N+]=[N-])[C@@H](CO)O2)c(=O)[nH]c1=O [ZIDOVUDINE] | 9.5% | 7.1% | 4.7%
CC[N+](CC)(CC)CC [TETRYLAMMONIUM] | 25.9% | 4.9% | 6.7%
OC(Cn1cncn1)(Cn1cncn1)c1ccc(F)cc1F [FLUCONAZOLE] | 7.4% | 7.5% | 34.1%
CN1CCC[C@H]1c1cccnc1 [NICOTINE] | 6.9% | 11% | -16.5%
O=c1c(O)c(-c2ccc(O)c(O)c2)oc2cc(O)cc(O)c12 [QUERCETIN] | 77% | 21.6% | 72.6%
COc1cc(Cc2cnc(N)nc2N)cc(OC)c1OC [TRIMETHOPRIM] | 24.7% | 18.8% | 35.1%
COc1c2occc2cc2ccc(=O)oc12 [METHOXSALEN] | 38.1% | 8.9% | -1.6%
O=C1C[C@@H](c2ccc(O)cc2)Oc2cc(O)cc(O)c21 [NARINGENIN] | 34.8% | -57.2% | 32.4%
IVERMECTIN | 64.7% | 55.2% | 39%
CC1=C(C(=O)O)N2C(=O)[C@@H](NC(=O)[C@H](N)c3ccc(O)cc3)[C@H]2SC1 [CEFADROXIL] | 9.4% | 21% | 3.5%
CN(CCOc1ccc(CC2SC(=O)NC2=O)cc1)c1ccccn1 (stereo not drawn) [ROSIGLITAZONE] | 79.1% | -32.1% | 10%
CN(C)[C@@H]1C(O)=C(C(N)=O)C(=O)[C@@]2(O)C(O)=C3C(=O)c4c(O)cccc4[C@@](C)(O)[C@H]3C[C@@H]12 [TETRACYCLINE] | 22.1% | 29.5% | 51.1%
C[C@H](CCC(=O)NCC(=O)O)[C@H]1CC[C@H]2[C@@H]3CC[C@@H]4C[C@H](O)CC[C@]4(C)[C@H]3C[C@H](O)[C@]12C [GLYCODEOXYCHOLATE] | 85% | 79% | 53.8%
Cc1cccc(C)c1OCC(=O)N[C@@H](Cc1ccccc1)[C@@H](O)C[C@H](Cc1ccccc1)NC(=O)[C@H](C(C)C)N1CCCNC1=O [LOPINAVIR] | 85.8% | 84.6% | 86.4%
CC(C)OC(=O)C(C)(C)Oc1ccc(C(=O)c2ccc(Cl)cc2)cc1 [FENOFIBRATE] | 5.4% | -10.8% | 34.2%
S=P(N1CC1)(N1CC1)N1CC1 [THIOTEPA] | -40.3% | 0.6% | 16.2%
C[C@H](CCC(=O)O)[C@H]1CC[C@H]2[C@@H]3[C@H](O)C[C@@H]4C[C@H](O)CC[C@]4(C)[C@H]3C[C@H](O)[C@]12C [CHOLIC ACID] | 41.6% | 40.8% | 20.2%
COc1cc2nc(N3CCN(C(=O)c4ccco4)CC3)nc(N)c2cc1OC [PRAZOSIN] | 25.1% | 36.1% | 1%
